In brackets after ≈: the same amount, converted by molar mass. Like-named read-outs stand apart in the source and are kept apart here.
What was measured:
[1] = Metabolic stability in mouse liver microsomes; type: in vitro ADME; conditions: NADPH independent metabolism; for half-life: mouse
Description: (§1) Selected compounds were screened for aqueous solubility, transit performance in MDCK-mdr1 cell
(§2) lines for permeability, and metabolic stability in human and mouse liver microsomes as a measure of
(§3) ADME studies reported in this work were independently performed by GVK Biosciences (Hyderabad,
(§4) India) and/or Cyprotex (Macclesfield, UK).
(§5) Cyptotex, UK. See: https://www.cyprotex.com/admepk
(§6) GVK Biosciences, India. See: https://www.gvkbio.com/discovery-services/biology-services/dmpk-
(§7) The MDCK-mdr1 cell line used in these experiments was supplied to GVK Biosciences from SOLVO

[2] = Hydrolytic stability in buffer systems; type: physicochemical; conditions: three buffer systems (pH 4, 7.4, 10), time points up to 18 h, UPLC-MS
[3] = Aqueous thermodynamic solubility; type: physicochemical; conditions: aqueous medium (not further specified), thermodynamic from solid
Description: as §1, §2, §3, §4, §5, §6, §7

[4] = MDCK-mdr1 cell permeability; type: in vitro ADME; conditions: dog
Description: as §1, §2, §3, §4, §5, §6, §7

MDCK-mdr1 cell line = assay: MDCK-mdr1 cell permeability; type: in vitro ADME; conditions: MDCK-mdr1
Description: as §1, §2, §3, §4, §5, §6, §7

[5] = Metabolic stability in human liver microsomes; type: in vitro ADME; conditions: NADPH independent metabolism
Description: as §1, §2, §3, §4, §5, §6, §7

[6] = system: Wnt/β-catenin signaling pathway TCF/LEF reporter (luciferase) HEK293 cell line with exogenous Wnt3a and NOTUM; assay: cells; type: cell-based; conditions: for EC50: Wnt3a 100 ng mL^–1, NOTUM 500 ng mL^–1, n = 4, read-out: TCF/LEF reporter EC50, activation of Wnt signaling via inhibition of NOTUM

In the case of `Cc1ccccc1OCC(=O)N1CCc2ccccc2C1` [Compound 54], the “MLM (t1/2 min)” value [1] is reported as “Not detected ^a”.
With `Cc1ccccc1OCC(=O)Nc1ccc2cnn(C)c2c1` [Compound 34] the Hydrolytic stability [2] was “only parent was detected”, the solubility thermodynamic [3] was 2 µg/mL (≈ 6.77 µM) and the Papp A→B ([4]; MDCK-mdr1, AB) was 5.1 ×10⁻⁶ cm/s. The Papp B→A ([4]; MDCK-mdr1, BA) was 6.6 ×10⁻⁶ cm/s, the P-gp mediated efflux (MDCK-mdr1 cell line) was “no evidence of P-gp mediated efflux” and the half-life [5] was 11.6 min. For the same molecule, the “MLM (t1/2 min)” value [1] was “Not detected ^a”.
For `Cc1ccccc1OCC(=O)Nc1ccc2nccnc2c1` [Compound 27], the “Response in TCF/LEF reporter assay” value [6] was “supramaximal response”.
In the case of `Cc1ccccc1OCC(=O)Nc1ccc2cn(C)nc2c1` [Compound 35], the “Response in TCF/LEF reporter assay” value ([6]; dual activity: NOTUM inhibition and stabilizers of luciferase enzyme) is reported as “supramaximal response”.
For `Cc1ccccc1OCC(=O)Nc1cccnc1` [Compound 3, 2-(2-methylphenoxy)-N-(pyridine-3-yl)acetamide], the half-life ([1]; liver microsomes) was 1.1 min.
With `Cc1ccccc1OCC(=O)Nc1cnccn1` [Compound 22] the “MLM (t1/2 min)” value [1] was “Not detected ^a”.
`CCn1cc2ccc(NC(=O)COc3ccccc3C)cc2n1` [Compound 37] showed an EC50 ([6]; Homo sapiens, HEK293) of 386 ± 199 nM.
`Cc1ccccc1OCC(=O)Nc1ccc2cnccc2c1` [Compound 45] gave a half-life [5] of 12.1 min and a half-life ([1]; liver microsomes) of 11 min.
In the case of `Cc1ccccc1OCC(=O)Nc1ccc2cn(C(C)C)nc2c1` [Compound 38], the EC50 ([6]; Homo sapiens, HEK293) is reported as ~934 nM, the inhibition at 3 µM ([6]; Homo sapiens, HEK293, at 3 μM) is reported as 60% and the half-life [5] is reported as 5.1 min. It also gave a half-life ([1]; liver microsomes) of 5.7 min.
With `Cc1ccccc1OCC(=O)Nc1ccc2nn[nH]c2c1` [Compound 39] the half-life ([1]; liver microsomes) was 1.8 min.
`Cc1ccccc1N(C)CC(=O)Nc1ccc2cnn(C)c2c1` [Compound 53] showed a half-life ([1]; mouse liver microsomes) of 5.2 min.
Work on `O=C(COc1ccccc1Cl)Nc1ccc2cnccc2c1` [Compound 50] yielded a half-life ([1]; liver microsomes) of 3.3 min.

Reference: PMC6727465, “Discovery of 2-phenoxyacetamides as inhibitors of the Wnt-depalmitoleating enzyme NOTUM from an X-ray fragment screen” (MedChemComm, 2019)
